The values that follow are results of earlier work, collected in patent US10314326B2, “Composition for reducing food intake” (Natures Remedies Ltd, priority 2009, dated 2019).

Read-outs that look alike come from different tables or passages of the source. No end group written: not given here.

The conditions of data set [1]: literature; for reduction in food/calorie intake: pharmacological options.
For data set [2] the following is noted: approximately 20 g per day for 7 days, human volunteers.
For data set [3] the following is noted: peripheral injection, human subjects.
The conditions of data set [4]: 14 healthy volunteers.
For data set [5] the following is noted: peripheral injection, rats.

Take fructooligosaccharides: the “food intake and appetite ratings” value in data set [1] is reported as “not significantly reduced”.
Consider sodium alginate, for which the “reduction in energy intake” value in data set [1] (human studies) was 7%.
For the compound `CC(C)CC(N(C)C)C1(c2ccc(Cl)cc2)CCC1` (stereo not drawn) [sibutramine], in data set [1], the “reduction in food/calorie intake” value is 12-26%.
As for oligofructose, the “serum GLP-1 levels” value in data set [2] is “increased”. For the same compound, the “reduction in total intake” value in data set [1] (human studies) is 5%.
For methylcellulose, the “food intake and appetite ratings” value in data set [1] is listed as “not significantly reduced”.
`O=C(O)CC(O)(C(=O)O)C(O)C(=O)O` (stereo not drawn) [HCA-SX, hydroxycitric acid]: in data set [1] (human studies), the “decrease in food intake” value is 4%.
As to `CCN(CC)C(C)C(=O)c1ccccc1` (stereo not drawn) [diethylpropion], in data set [1], the “reduction in food/calorie intake” value is 11-15%.
Turning to “glucagon-like peptide-1 (7-36) amide (HAEGTFTSDVSSYLEGQAAKEFIAWLVKGR-NH2; UniProt P01275 98-127, looked up) [GLP-1, anorectic gut peptide secreted by the L-cells]”, in data set [3], the body weight result is recorded as “decreases” and the food intake result is on record as “decreases”. For the same compound, in data set [4], the “motility in the antro-duodeno-jejunal region” value was “decreases”. Further, in data set [5], the body weight entry is “decreases” and the food intake entry is reported as “decreases”.
For beta-glucan, the “food intake and appetite ratings” value in data set [1] is on record as “not significantly reduced”.
Consider `CNCCC(Oc1ccc(C(F)(F)F)cc1)c1ccccc1` (stereo not drawn) [fluoxetin], for which the “reduction in food/calorie intake” value in data set [1] is 13-16%.
